Data as given in patent US7875607B2, “7,8-bicycloakyl-chroman derivatives” (Ampere Life Sciences, Inc., priority 2004, dated 2011).

How the values were obtained:
[1] = molecular target: T1, human recombinant 5-lipoxygenase (Homo sapiens, UniProt P09917); experiment: 5-Lipoxygenase enzyme assay; assay type: biochemical; settings: 70 μM arachidonic acid, pH 7.4
T1 construct: purchased Cayman 60402
T1 sequence (P09917 1-674): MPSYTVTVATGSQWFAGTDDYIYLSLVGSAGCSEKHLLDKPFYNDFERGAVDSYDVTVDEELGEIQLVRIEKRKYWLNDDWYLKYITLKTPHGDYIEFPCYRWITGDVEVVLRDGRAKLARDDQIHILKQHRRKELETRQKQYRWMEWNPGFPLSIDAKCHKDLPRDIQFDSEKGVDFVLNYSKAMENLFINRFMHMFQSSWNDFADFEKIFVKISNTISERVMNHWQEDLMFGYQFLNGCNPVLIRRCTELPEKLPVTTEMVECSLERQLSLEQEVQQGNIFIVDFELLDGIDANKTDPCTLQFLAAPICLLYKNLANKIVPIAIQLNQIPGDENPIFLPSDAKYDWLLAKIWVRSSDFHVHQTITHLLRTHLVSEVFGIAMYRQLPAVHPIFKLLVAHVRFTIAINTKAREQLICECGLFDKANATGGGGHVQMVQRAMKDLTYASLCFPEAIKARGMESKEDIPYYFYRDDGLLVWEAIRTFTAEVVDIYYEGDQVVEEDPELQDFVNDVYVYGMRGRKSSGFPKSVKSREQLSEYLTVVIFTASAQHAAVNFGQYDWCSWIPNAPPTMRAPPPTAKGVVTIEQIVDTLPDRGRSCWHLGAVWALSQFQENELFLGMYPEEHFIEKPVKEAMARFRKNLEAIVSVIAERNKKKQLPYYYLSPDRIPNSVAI
Summary of the method: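 Human recombinant 5-LO (0.5 U) with compound in 50 mM Tris-HCl pH 7.4 reacted with 70 μM arachidonic acid for 10 min at room temperature. Hydroperoxide formation was read via FOX xylenol orange complex at 620 nm after 1 h; compounds at 5 concentrations from 10 μM, in triplicate.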

[2] = tested on: LTB4 release from MPRO cell line; experiment: LTB4-cell assay; assay type: cell-based; settings: Mus musculus; differentiated MPRO cells, 1 μM A23187, 1 hour; read-out: EC50, inhibition of LTB4
Summary of the method: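 Mouse MPRO cells differentiated 72 hours with 10 μM all-trans retinoic acid, then stimulated 1 hour at 37° C with 1 μM A23187 plus compound (5 concentrations from 10 μM, quadruplicate). Supernatant LTB4 measured by competitive EIA; unstimulated cells as negative control.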

[3] = molecular target: T2, porcine leukocyte 12/15-lipoxygenase (Sus scrofa, UniProt P16469); experiment: 12/15-Lipoxygenase enzyme assay; assay type: biochemical; settings: 70 μM arachidonic acid, pH 7.4; read-out: IC50, inhibition of 12/15-Lipoxygenase
T2 sequence (P16469 1-663): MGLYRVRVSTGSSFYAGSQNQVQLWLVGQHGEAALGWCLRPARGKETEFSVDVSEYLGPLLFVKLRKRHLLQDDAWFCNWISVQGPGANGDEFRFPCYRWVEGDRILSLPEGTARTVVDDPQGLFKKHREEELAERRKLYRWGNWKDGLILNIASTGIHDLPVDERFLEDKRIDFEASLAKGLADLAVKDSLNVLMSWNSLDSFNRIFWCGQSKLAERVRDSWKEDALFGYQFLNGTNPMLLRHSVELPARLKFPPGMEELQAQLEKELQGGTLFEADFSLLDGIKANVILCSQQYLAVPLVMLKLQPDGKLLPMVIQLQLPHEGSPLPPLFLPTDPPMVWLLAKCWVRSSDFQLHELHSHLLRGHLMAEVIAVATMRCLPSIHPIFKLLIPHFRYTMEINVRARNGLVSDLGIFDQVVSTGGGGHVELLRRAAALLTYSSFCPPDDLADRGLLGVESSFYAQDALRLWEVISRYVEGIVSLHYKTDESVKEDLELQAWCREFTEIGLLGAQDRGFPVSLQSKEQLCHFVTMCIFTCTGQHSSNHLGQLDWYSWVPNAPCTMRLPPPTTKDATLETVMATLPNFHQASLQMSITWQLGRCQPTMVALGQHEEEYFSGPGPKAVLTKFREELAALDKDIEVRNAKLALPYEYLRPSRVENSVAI
Protocol: This procedure was used for measuring the enzymatic activity of porcine leukocyte 12/15-lipoxygenase using a calorimetric method based on the ferric oxidation of xylenol orange.
Porcine Leukocyte 12/15-lipoxygenase (Cayman Cat # 60300) was used in this assay. Test compound and/or vehicle was added to 1.3U 12/15-lipoxygenase in 50 mM Tris-HCl buffer, pH 7.4. The reaction was initiated by addition of 70 μM arachidonic acid in Tris-HCl buffer, pH 7.4, and terminated after a 10 minute incubation at room temperature by addition of FOX reagent (25 mM sulphuric acid, 100 μM xylenol orange, 100 μM iron (II) sulphate, methanol:water 9:1). The yellow color of acidified xylenol orange was converted to a blue color by the lipid hydroperoxide-mediated oxidation of Fe^2+ ions and the interaction of the resulting Fe^3+ ions with the dye. The complex was allowed to form during a 1 hour incubation at room temperature with shaking. Absorbance of the Fe^3+ complex was then measured at […] using a spectrophotometer.
Negative controls contained enzyme during the incubation step but substrate was not added until after the FOX reagent.
Compounds are screened at 5 concentrations in triplicate starting at 10 μM

Row | Structure (SMILES) | IC50 [1] | EC50 [2] | IC50 [3]
1 | CC1(C)C=Cc2cc(O)c3c(c2O1)C1CCC3CC1 [2,2-Dimethyl-7,8,9,10-tetrahydro-7,10-ethano-2H-benzo[h]chromen-6-ol] | ≤ 5 µM | ≤ 5 µM | ≤ 10 µM
2 | CC(C)CSCCCC1(C)CCc2cc(O)c3c(c2O1)C1CCC3C1 (stereo not shown) [2-(3-isobutylsulfanyl-propyl)-2-methyl-3,4,7,8,9,10-hexahydro-7,10-methano-2H-benzo[h]chromen-6-ol] |  | ≤ 5 µM | ≤ 10 µM
3 | CC1(CCCCl)CCc2cc(O)c3c(c2O1)C1CCC3C1 (stereo not shown) [2-(3-Chloro-propyl)-2-methyl-3,4,7,8,9,10-hexahydro-7,10-methano-2H-benzo[h]chromen-6-ol] | ≤ 5 µM | ≤ 5 µM | 
4 | CC1(CCCSc2nccs2)CCc2cc(O)c3c(c2O1)C1CCC3C1 (stereo not shown) [2-Methyl-2-[3-(thiazol-2-ylsulfanyl)-propyl]-3,4,7,8,9,10-hexahydro-7,10-methano-2H-benzo[h]chromen-6-ol] | ≤ 5 µM | ≤ 5 µM | ≤ 10 µM
5 | CC1(C)CCc2cc(O)c3c(c2O1)C1CCC3CC1 [2,2-Dimethyl-3,4,7,8,9,10-hexahydro-7,10-ethano-2H-benzo[h]chromen-6-ol] | ≤ 5 µM | ≤ 5 µM | ≤ 10 µM
